Assay results as given in US8389513B2, “2-amino-5,5-difluoro-5,6-dihydro-4H-[1,3]oxazin-4-yl)-phenyl]-amides” (Hoffmann-La Roche Inc., priority 2009, dated 2013).

Tests used:
[1] = target: T1, BACE2 (Rattus norvegicus, UniProt Q6IE75); assay: Assay for BACE inhibition by measuring cellular TMEM27 cleavage; assay type: cell-based; settings: INS-TMEM27 cells (INS1e-derived); shed TMEM27 by ELISA; read-out: BACE2 cell act. IC50
T1 construct: endogenous cellular BACE2 in the Ins1e rat cell line; endogenous in cells; host or cells: INS-TMEM27 (INS1e-derived rat cell line with TetOn-inducible full-length hTMEM27)
T1 sequence (Q6IE75 63-514): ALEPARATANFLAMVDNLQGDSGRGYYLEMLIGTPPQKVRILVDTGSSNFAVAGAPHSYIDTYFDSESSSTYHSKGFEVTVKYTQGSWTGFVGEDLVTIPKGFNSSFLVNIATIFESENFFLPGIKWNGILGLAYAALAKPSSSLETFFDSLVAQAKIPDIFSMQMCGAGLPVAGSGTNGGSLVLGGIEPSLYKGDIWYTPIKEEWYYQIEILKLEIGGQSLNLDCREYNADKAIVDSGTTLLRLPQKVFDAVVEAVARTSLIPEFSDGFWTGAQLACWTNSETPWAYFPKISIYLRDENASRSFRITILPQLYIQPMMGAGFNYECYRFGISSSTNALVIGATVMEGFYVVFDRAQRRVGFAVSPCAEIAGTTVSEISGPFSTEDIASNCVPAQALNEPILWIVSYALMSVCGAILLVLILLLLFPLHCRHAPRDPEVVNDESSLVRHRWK
Description: Assay for BACE Inhibition by Measuring Cellular TMEM27 Cleavage:
The assay uses the principle of inhibition of human TMEM27 cleavage by endogenous cellular BACE2 in the Ins1e rat cell line and shedding from the cell surface into the culture medium, followed by detection in an ELISA assay. Inhibition of BACE2 prevents the cleavage and shedding in a dose-dependent manner.
The stable cell line “INS-TMEM27” represents an INS1e-derived cell line with inducible expression (using the TetOn system) of full-length hTMEM27 in a doxycycline-dependent manner. The cells are cultured throughout the experiment in RPMI1640+Glutamax (Invitrogen) Penicillin/Streptomycin, 10% Fetal bovine serum, […] pyruvate, […] beta-mercatptoethanol, 100 micrograms/ml G418 and 100 microgram/ml hygromycin and are grown inadherent culture at 37° C. in a standard CO2 cell culture incubator. INS-TMEM27 cells are seeded in 96-well plates. After 2 days in culture, BACE2 inhibitor is added in a range of concentrations as required by the assay and after a further two hours, doxycycline is added to a final concentration of 500 ng/ml. The cells are incubated for a further 46 hours and the supernatant harvested for detection of shed TMEM27.
An ELISA assay (using a pair of mouse anti-human-TMEM27 antibodies, raised against the extracellular domain of TMEM27) is used for detection of TMEM27 in the culture medium. An EC50 for BACE2 inhibition is calculated using the ELISA readout for each inhibitor concentration with standard curve-fitting software such as XLFit for the Excel spreadsheet program.

[2] = in vivo effect; settings: po; % of control @ 30 mg/kg p.o.
[3] = target: T2, recombinant human cathepsin E (Homo sapiens, UniProt P14091); assay: Cathepsin E fluorescent substrate kinetic assay; assay type: biochemical; settings: pH 4.5
T2 construct: purchased R&D Systems
T2 sequence (P14091 54-396): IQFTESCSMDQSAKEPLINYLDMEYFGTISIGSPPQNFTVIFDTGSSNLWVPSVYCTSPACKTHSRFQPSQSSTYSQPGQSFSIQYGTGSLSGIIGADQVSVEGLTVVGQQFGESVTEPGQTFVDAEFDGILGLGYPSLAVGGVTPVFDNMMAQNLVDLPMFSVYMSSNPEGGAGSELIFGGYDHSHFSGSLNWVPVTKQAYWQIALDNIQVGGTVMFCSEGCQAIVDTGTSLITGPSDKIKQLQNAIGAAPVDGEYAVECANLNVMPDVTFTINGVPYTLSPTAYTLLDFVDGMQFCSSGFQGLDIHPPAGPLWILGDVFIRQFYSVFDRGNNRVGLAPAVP
Description: (§1) Cathepsin D and Cathepsin E Fluorescent Substrate Kinetic Assays
The MR121 fluorescence assays described below are based on the fact that MR121 forms a non-fluorescent ground state complex with tryptophan. In solution this formation occurs at millimolar concentrations of tryptophan. The mechanism can be used to design a generic biochemical assay for proteases. […] In absence of protease activity, the substrates remain intact and the MR121 fluorescence is reduced by the high local Trp-concentration. If the substrates are cleaved by the enzymes the MR121 fluorescence is recovered.
The fluorescent substrate cathepsin D and cathepsin E kinetic assays were performed at room temperature in 384-well microtiter plates (black with clear flat bottom, non binding surface plates from Corning) in a final volume of 51 μl. The test compounds were serially diluted in DMSO (15 concentrations, 1/3 dilution steps) and 1 μl of diluted compounds were mixed for 10 min with 40 μl of cathepsin D (from human liver, Calbiochem) diluted in assay buffer (100 mM sodium acetate, 0.05% BSA, pH 5.5; final concentration: 200 nM) or with 40 μl of recombinant human cathepsin E (R&D Systems) diluted in assay buffer (100 mM sodium acetate, 0.05% BSA, pH 4.5; final concentration: 0.01 nM). […] The enzymatic reaction was followed in a plate: vision reader (Perkin Elmer) (excitation wavelength: 630 nm; emission: 695 nm) for at least 30 minutes in a kinetic measurement detecting an increase of MR121 fluorescence during the reaction time. The slope in the linear range of the kinetic was calculated and the IC50 of the test compounds were determined using a four parameter equation for curve fitting.

[4] = target: T3, cathepsin D (from human liver) (Homo sapiens, UniProt P07339); assay: Cathepsin D fluorescent substrate kinetic assay; assay type: biochemical; settings: pH 5.5
T3 construct: cathepsin D (from human liver, Calbiochem); purchased Calbiochem; host or cells: human liver
Description: as §1
The MR121 fluorescence assays described below are based on the fact that MR121 forms a non-fluorescent ground state complex with tryptophan. In solution this formation occurs at millimolar concentrations of tryptophan. The mechanism can be used to design a generic biochemical assay for proteases. A substrate peptide is labeled at the N-terminus with tryptophan and at the C-terminus with the fluorophore MR121 (for cathepsin D the 10 amino acid peptide […]-MR121 was used; for cathepsin E, MR121-[…] was used). In absence of protease activity, the substrates remain intact and the MR121 fluorescence is reduced by the high local Trp-concentration. If the substrates are cleaved by the enzymes the MR121 fluorescence is recovered.
The fluorescent substrate cathepsin D and cathepsin E kinetic assays were performed at room temperature in 384-well microtiter plates (black with clear flat bottom, non binding surface plates from Corning) in a final volume of 51 μl. The test compounds were serially diluted in DMSO (15 concentrations, 1/3 dilution steps) and 1 μl of diluted compounds were mixed for 10 min with 40 μl of cathepsin D (from human liver, Calbiochem) diluted in assay buffer (100 mM sodium acetate, 0.05% BSA, pH 5.5; final concentration: 200 nM) or with 40 μl of recombinant human cathepsin E (R&D Systems) diluted in assay buffer (100 mM sodium acetate, 0.05% BSA, pH 4.5; final concentration: 0.01 nM). After addition of 10 μl of the cathepsin D substrate […]-MR121 diluted in cathepsin D assay buffer (final concentration: 300 nM) or 10 µl of the cathepsin E substrate MR121-[…] diluted in cathepsin E assay buffer (final concentration: 300 nM), the plates were strongly shaken for 2 minutes. The enzymatic reaction was followed in a plate: vision reader (Perkin Elmer) (excitation wavelength: 630 nm; emission: 695 nm) for at least 30 minutes in a kinetic measurement detecting an increase of MR121 fluorescence during the reaction time. The slope in the linear range of the kinetic was calculated and the IC50 of the test compounds were determined using a four parameter equation for curve fitting.

[5] = target: T4, BACE1 (Homo sapiens, UniProt P56817); assay: Cellular Aβ-lowering assay (Aβ40 ELISA); assay type: cell-based; settings: HEK293 cells stably expressing human APP695; Aβ40 in culture supernatant; read-out: BACE1 cell act. Aβ40 IC50
T4 construct: Human HEK293 cells which are stably transfected with a vector expressing a cDNA of the human APP wt gene (APP695); endogenous in cells; host or cells: HEK293 stably transfected with human APP695 wt
Summary of the method: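 Aβ40 in supernatant measured by sandwich ELISA (TMB, 450 nm) and quantified against a pure Aβ peptide standard curve.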

T4 sequence (P56817 46-501): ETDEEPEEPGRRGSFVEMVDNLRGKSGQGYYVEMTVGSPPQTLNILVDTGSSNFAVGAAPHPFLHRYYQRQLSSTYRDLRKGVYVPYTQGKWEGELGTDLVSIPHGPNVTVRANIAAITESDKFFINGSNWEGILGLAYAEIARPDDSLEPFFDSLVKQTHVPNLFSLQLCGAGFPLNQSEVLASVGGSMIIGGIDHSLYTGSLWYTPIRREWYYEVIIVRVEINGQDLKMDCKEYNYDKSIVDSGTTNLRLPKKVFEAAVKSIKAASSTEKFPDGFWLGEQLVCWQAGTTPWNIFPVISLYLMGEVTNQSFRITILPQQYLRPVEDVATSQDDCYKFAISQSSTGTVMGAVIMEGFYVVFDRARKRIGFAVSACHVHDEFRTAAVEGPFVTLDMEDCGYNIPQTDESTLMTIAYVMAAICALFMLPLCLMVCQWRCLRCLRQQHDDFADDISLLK
T3 sequence (P07339 65-412): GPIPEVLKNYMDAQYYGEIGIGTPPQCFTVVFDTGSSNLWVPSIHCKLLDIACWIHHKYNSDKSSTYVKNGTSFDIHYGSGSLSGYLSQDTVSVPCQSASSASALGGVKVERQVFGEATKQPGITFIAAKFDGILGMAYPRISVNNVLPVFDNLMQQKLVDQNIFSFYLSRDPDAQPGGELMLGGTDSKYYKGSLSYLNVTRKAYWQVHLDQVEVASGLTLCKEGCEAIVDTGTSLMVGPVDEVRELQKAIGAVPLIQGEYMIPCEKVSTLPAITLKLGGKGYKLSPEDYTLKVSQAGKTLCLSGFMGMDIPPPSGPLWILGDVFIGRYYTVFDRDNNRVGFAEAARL

`C[C@]1(c2cc(NC(=O)c3ccc(C#N)cn3)ccc2F)N=C(N)OCC1(F)F` [Example 11, 5-Cyano-pyridine-2-carboxylic acid [3-((R)-2-amino-5,5-difluoro-4-methyl-5,6-dihydro-4H-[1,3]oxazin-4-yl)-4-fluoro-phenyl]-amide] gave an IC50 [1] of 74 nM, a response vs control in vivo at 30 mg/kg [2] of less than 50% and an IC50 [3] of 73000 nM. For the same compound, the IC50 [4] was 69000 nM.

`Cc1nc(C(=O)Nc2ccc(F)c([C@@]3(C)N=C(N)OCC3(F)F)c2)co1` [Example 58, 2-Methyl-oxazole-4-carboxylic acid [3-((R)-2-amino-5,5-difluoro-4-methyl-5,6-dihydro-4H-[1,3]oxazin-4-yl)-4-fluoro-phenyl]-amide] showed an IC50 [5] of 15 nM and an IC50 [1] of 25 nM.

For `Cc1nc(C(=O)Nc2ccc(F)c([C@@]3(C)N=C(N)OCC3(F)F)c2)c(C)o1` [Example 59, 2,5-Dimethyl-oxazole-4-carboxylic acid [3-((R)-2-amino-5,5-difluoro-4-methyl-5,6-dihydro-4H-[1,3]oxazin-4-yl)-4-fluoro-phenyl]-amide], the IC50 [5] was 43 nM and the IC50 [1] was 97 nM.

With `Cc1nc(C(=O)Nc2ccc(F)c([C@@]3(C)N=C(N)OCC3(F)F)c2)c(C(F)(F)F)o1` [Example 60, 2-Methyl-5-trifluoromethyl-oxazole-4-carboxylic acid [3-((R)-2-amino-5,5-difluoro-4-methyl-5,6-dihydro-4H-[1,3]oxazin-4-yl)-4-fluoro-phenyl]-amide] the IC50 [5] was 88 nM and the IC50 [1] was 367 nM.

`Cn1ccc(C(=O)Nc2ccc(F)c([C@@]3(C)N=C(N)OCC3(F)F)c2)n1` [Example 63, 1-Methyl-1H-pyrazole-3-carboxylic acid [3-((R)-2-amino-5,5-difluoro-4-methyl-5,6-dihydro-4H-[1,3]oxazin-4-yl)-4-fluoro-phenyl]-amide] showed an IC50 [5] of 110 nM and an IC50 [1] of 113 nM.

With `C[C@]1(c2cc(NC(=O)c3[nH]ncc3Cl)ccc2F)N=C(N)OCC1(F)F` [Example 65, 4-Chloro-2H-pyrazole-3-carboxylic acid [3-((R)-2-amino-5,5-difluoro-4-methyl-5,6-dihydro-4H-[1,3]oxazin-4-yl)-4-fluoro-phenyl]-amide] the IC50 [5] was 404 nM and the IC50 [1] was 543 nM.

Compound `Cc1cn[nH]c1C(=O)Nc1ccc(F)c([C@@]2(C)N=C(N)OCC2(F)F)c1` [Example 66, 4-Methyl-2H-pyrazole-3-carboxylic acid [3-((R)-2-amino-5,5-difluoro-4-methyl-5,6-dihydro-4H-[1,3]oxazin-4-yl)-4-fluoro-phenyl]-amide] has an IC50 [5] of 622 nM and an IC50 [1] of 465 nM.

Compound `C[C@]1(c2cc(NC(=O)c3nn(CC(F)F)cc3Cl)ccc2F)N=C(N)OCC1(F)F` [Example 68, 4-Chloro-1-(2,2-difluoro-ethyl)-1H-pyrazole-3-carboxylic acid [3-((R)-2-amino-5,5-difluoro-4-methyl-5,6-dihydro-4H-[1,3]oxazin-4-yl)-4-fluoro-phenyl]-amide] has an IC50 [5] of 927 nM and an IC50 [1] of 230 nM.

`C[C@]1(c2cc(NC(=O)C3(C(F)(F)F)CC3)ccc2F)N=C(N)OCC1(F)F` [Example 75, 1-Trifluoromethyl-cyclopropanecarboxylic acid [3-((R)-2-amino-5,5-difluoro-4-methyl-5,6-dihydro-4H-[1,3]oxazin-4-yl)-4-fluoro-phenyl]-amide] gave an IC50 [5] of 1490 nM and an IC50 [1] of 1010 nM.

`C[C@@](O)(C(=O)Nc1ccc(F)c([C@@]2(C)N=C(N)OCC2(F)F)c1)C(F)(F)F` [Example 76, (R)—N-[3-((R)-2-Amino-5,5-difluoro-4-methyl-5,6-dihydro-4H-[1,3]oxazin-4-yl)-4-fluoro-phenyl]-3,3,3-trifluoro-2-hydroxy-2-methyl-propionamide 2,2,2-trifluoroacetate] gave an IC50 [5] of 1050 nM and an IC50 [1] of 1420 nM.
